Laboratory results taken from ChEMBL document CHEMBL1817657, “Block of the hERG channel by bupivacaine: Electrophysiological and modeling insights towards stereochemical optimization” (Eur J Med Chem, 2011).
Structures can show the parent of a compound that is named as a salt.

Columns and labels:
Format in all cases: cell-based
[1] = tested on: HEK293; assay: Ratio IC50 for human ERG F656A mutant channel expressed in HEK293 cells to IC50 for wild-type human ERG channel expressed in HEK293 cells
[2] = target: T1, Voltage-gated inwardly rectifying potassium channel KCNH2 (Homo sapiens, UniProt Q12809); assay: Inhibition of wild-type human ERG channel expressed in CHO cells by whole-cell patch clamp technique
[3] = target: T2, Voltage-gated inwardly rectifying potassium channel KCNH2 (Homo sapiens, UniProt Q12809, Y652A); assay: Inhibition of human ERG Y652A mutant channel expressed in CHO cells by whole-cell patch clamp technique
[4] = target: T2, Voltage-gated inwardly rectifying potassium channel KCNH2; assay: Inhibition of human ERG Y652A mutant channel expressed in HEK293 cells assessed as blockade of potassium tail current by whole-cell patch clamp technique
[5] = target: Voltage-gated inwardly rectifying potassium channel KCNH2 (Homo sapiens, UniProt Q12809, F656A); assay: Inhibition of human ERG F656A mutant channel expressed in HEK293 cells assessed as blockade of potassium tail current by whole-cell patch clamp technique
[6] = target: Voltage-gated inwardly rectifying potassium channel KCNH2 (Homo sapiens, UniProt Q12809, V659A); assay: Inhibition of human ERG V659A mutant channel expressed in HEK293 cells assessed decrease in blockade of potassium tail current at 1 mM by whole-cell patch clamp technique; settings: hek293, 1000 µM
[7] = tested on: HEK293; assay: Ratio IC50 for human ERG Y652A mutant channel expressed in HEK293 cells to IC50 for wild-type human ERG channel expressed in HEK293 cells
[8] = target: T1, Voltage-gated inwardly rectifying potassium channel KCNH2; assay: Inhibition of wild-type human ERG channel expressed in HEK293 cells assessed as blockade of potassium tail current by whole-cell patch clamp technique

Structure (SMILES) | Ratio IC50 [1] | IC50 [2] [µM] | IC50 [3] [µM] | IC50 [4] [µM] | IC50 [5] [µM] | inhibition (INH) [6] | Ratio IC50 [7] | IC50 [8] [µM]
CCCCN1CCCCC1C(=O)Nc1c(C)cccc1C.Cl (racemic) [BUPIVACAINE HYDROCHLORIDE] | 30 | 22 | 95 | 265 | 866 | Active | 10 | 32
CCCCN1CCCC[C@H]1C(=O)Nc1c(C)cccc1C [LEVOBUPIVACAINE HYDROCHLORIDE] | – | 13 | 83 | 278 | 1010 | – | – | 13
CCCCN1CCCC[C@@H]1C(=O)Nc1c(C)cccc1C | – | – | – | 276 | 758 | – | – | 84
